Assay results as given in the supplement of paper PMC10307832.

Each cell line was assayed with Cn1c(=O)n(-c2ccc(C(C)(C)C#N)cc2)c2c3cc(-c4cnc5ccccc5c4)ccc3ncc21 [Dactolisib] + CS(=O)(=O)CCNCc1ccc(-c2ccc3ncnc(Nc4ccc(OCc5cccc(F)c5)c(Cl)c4)c3c2)o1 [Lapatinib] (partner 2 µM) (assay: relative viability (nuclei count vs DMSO), 5 days (fraction); higher = more cells survive). Settings: first compound 0.002 µM.
Procedure, shortened: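 The day after seeding in 1536-well plates, lung cancer cell lines were treated by pin tool with a single drug, or with a fixed anchor-drug dose together with five library-drug doses (not always all listed) in √10 steps. After 5 days, a combined fix-and-stain solution (final 0.05% Triton X-100, 1% formaldehyde, 1 ug/ml Hoechst) was added. Nuclei counted on 4× images gave relative viability as treated counts over vehicle counts, reported as the median of duplicate plates.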
Work on NCI-H1395 yielded a relative viability of 1.
With 201T the relative viability was 1.07.
NCI-H1915 showed a relative viability of 0.986.
Cell Line HCC-827 has a relative viability of 0.209.
For LXF-289, the relative viability was 0.92.
For NCI-H23, the relative viability was 1.15.
Cell Line NCI-H1299 has a relative viability of 0.998.
NCI-H647 gave a relative viability of 0.912.
CAL-12T gave a relative viability of 0.792.
In the case of NCI-H1651, the relative viability is reported as 0.84.
For EPLC-272H, the relative viability was 0.879.
For NCI-H2228, the relative viability was 0.993.
For NCI-H1792, the relative viability was 1.05.
Cell Line NCI-H1355 has a relative viability of 1.02.
For NCI-H3122, the relative viability was 1.07.
Work on NCI-H1437 yielded a relative viability of 0.797.
Cell Line NCI-H1755 has a relative viability of 1.07.
For NCI-H2023, the relative viability was 0.282.
For HCC-15, the relative viability was 0.752.
NCI-H1793 was tested, and the relative viability was 0.631.
PC-14 showed a relative viability of 0.33.
Cell Line EKVX has a relative viability of 0.242.
In the case of LC-2-ad, the relative viability is reported as 1.01.
For NCI-H1563, the relative viability was 0.939.
NCI-H1944 showed a relative viability of 0.808.
With NCI-H1975 the relative viability was 0.796.
Work on RERF-LC-KJ yielded a relative viability of 0.901.
With ABC-1 the relative viability was 1.18.
Work on NCI-H358 yielded a relative viability of 0.443.
Work on NCI-H650 yielded a relative viability of 0.91.
Cell Line PC-3 [JPC-3] has a relative viability of 0.486.

Same assay, conditions: first compound 0.006325 µM
With NCI-H1395 the relative viability was 0.918.
201T showed a relative viability of 1.05.
NCI-H1915 gave a relative viability of 0.956.
Work on HCC-827 yielded a relative viability of 0.206.
For LXF-289, the relative viability was 0.906.
NCI-H23 was tested, and the relative viability was 1.1.
With NCI-H1299 the relative viability was 0.974.
Work on NCI-H647 yielded a relative viability of 0.799.
CAL-12T showed a relative viability of 0.567.
In the case of NCI-H1651, the relative viability is reported as 0.788.
For EPLC-272H, the relative viability was 0.728.
NCI-H2228 gave a relative viability of 0.914.
Cell Line NCI-H1792 has a relative viability of 0.943.
NCI-H1355 gave a relative viability of 0.879.
Work on NCI-H3122 yielded a relative viability of 1.02.
Work on NCI-H1437 yielded a relative viability of 0.835.
For NCI-H1755, the relative viability was 1.03.
Cell Line NCI-H2023 has a relative viability of 0.615.
HCC-15 was tested, and the relative viability was 0.884.
Cell Line NCI-H1793 has a relative viability of 0.409.
Work on PC-14 yielded a relative viability of 0.347.
For EKVX, the relative viability was 0.189.
NCI-H1563 was tested, and the relative viability was 0.892.
Cell Line NCI-H1944 has a relative viability of 0.814.
NCI-H1975 gave a relative viability of 0.767.
With RERF-LC-KJ the relative viability was 0.823.
ABC-1 gave a relative viability of 1.04.
Work on NCI-H358 yielded a relative viability of 0.439.
Cell Line NCI-H650 has a relative viability of 1.
In the case of PC-3 [JPC-3], the relative viability is reported as 0.492.

Same assay, conditions: first compound 0.02 µM
NCI-H1395 was tested, and the relative viability was 0.966.
For 201T, the relative viability was 0.991.
Cell Line NCI-H1915 has a relative viability of 0.97.
Work on HCC-827 yielded a relative viability of 0.201.
For LXF-289, the relative viability was 0.916.
With NCI-H23 the relative viability was 0.886.
NCI-H1299 was tested, and the relative viability was 0.98.
NCI-H647 showed a relative viability of 0.646.
CAL-12T showed a relative viability of 0.537.
NCI-H1651 was tested, and the relative viability was 0.643.
EPLC-272H showed a relative viability of 0.664.
NCI-H2228 showed a relative viability of 0.496.
For NCI-H1792, the relative viability was 0.859.
NCI-H1355 was tested, and the relative viability was 0.939.
In the case of NCI-H3122, the relative viability is reported as 1.03.
Work on NCI-H1437 yielded a relative viability of 0.807.
In the case of NCI-H1755, the relative viability is reported as 1.06.
NCI-H2023 gave a relative viability of 0.597.
HCC-15 gave a relative viability of 0.755.
Work on NCI-H1793 yielded a relative viability of 0.325.
With PC-14 the relative viability was 0.318.
Cell Line EKVX has a relative viability of 0.212.
Cell Line LC-2-ad has a relative viability of 1.06.
In the case of NCI-H1563, the relative viability is reported as 0.816.
For NCI-H1944, the relative viability was 0.758.
In the case of NCI-H1975, the relative viability is reported as 0.643.
Work on RERF-LC-KJ yielded a relative viability of 0.829.
For ABC-1, the relative viability was 0.982.
NCI-H358 showed a relative viability of 0.379.
With NCI-H650 the relative viability was 0.691.
With PC-3 [JPC-3] the relative viability was 0.44.

Same assay, conditions: first compound 0.06325 µM
Cell Line NCI-H1395 has a relative viability of 0.708.
201T gave a relative viability of 0.956.
With NCI-H1915 the relative viability was 0.964.
For HCC-827, the relative viability was 0.172.
In the case of LXF-289, the relative viability is reported as 0.884.
Work on NCI-H23 yielded a relative viability of 0.292.
NCI-H1299 showed a relative viability of 0.893.
For NCI-H647, the relative viability was 0.184.
CAL-12T showed a relative viability of 0.366.
NCI-H1651 showed a relative viability of 0.35.
With EPLC-272H the relative viability was 0.687.
NCI-H2228 gave a relative viability of 0.246.
Work on NCI-H1792 yielded a relative viability of 0.792.
In the case of NCI-H1355, the relative viability is reported as 0.521.
NCI-H3122 showed a relative viability of 1.08.
In the case of NCI-H1437, the relative viability is reported as 0.517.
For NCI-H1755, the relative viability was 0.852.
NCI-H2023 gave a relative viability of 0.127.
HCC-15 gave a relative viability of 0.594.
With NCI-H1793 the relative viability was 0.195.
PC-14 gave a relative viability of 0.186.
EKVX gave a relative viability of 0.164.
For LC-2-ad, the relative viability was 0.728.
NCI-H1563 gave a relative viability of 0.72.
Cell Line NCI-H1944 has a relative viability of 0.412.
With NCI-H1975 the relative viability was 0.327.
For RERF-LC-KJ, the relative viability was 0.53.
Cell Line ABC-1 has a relative viability of 0.808.
NCI-H358 was tested, and the relative viability was 0.304.
Cell Line NCI-H650 has a relative viability of 0.55.
PC-3 [JPC-3] showed a relative viability of 0.456.

Same assay, conditions: first compound 0.2 µM
NCI-H1395 was tested, and the relative viability was 0.545.
Work on 201T yielded a relative viability of 0.969.
Cell Line NCI-H1915 has a relative viability of 0.693.
Work on HCC-827 yielded a relative viability of 0.196.
For LXF-289, the relative viability was 0.731.
NCI-H23 was tested, and the relative viability was 0.313.
NCI-H1299 gave a relative viability of 0.661.
Cell Line NCI-H647 has a relative viability of 0.169.
With CAL-12T the relative viability was 0.258.
Work on NCI-H1651 yielded a relative viability of 0.303.
Cell Line EPLC-272H has a relative viability of 0.4.
In the case of NCI-H2228, the relative viability is reported as 0.246.
NCI-H1792 gave a relative viability of 0.293.
NCI-H1355 was tested, and the relative viability was 0.388.
With NCI-H3122 the relative viability was 0.795.
With NCI-H1437 the relative viability was 0.234.
Work on NCI-H1755 yielded a relative viability of 0.73.
For NCI-H2023, the relative viability was 0.137.
With HCC-15 the relative viability was 0.367.
NCI-H1793 was tested, and the relative viability was 0.242.
PC-14 gave a relative viability of 0.141.
With EKVX the relative viability was 0.129.
For LC-2-ad, the relative viability was 0.437.
Cell Line NCI-H1563 has a relative viability of 0.582.
Cell Line NCI-H1944 has a relative viability of 0.378.
In the case of NCI-H1975, the relative viability is reported as 0.284.
RERF-LC-KJ gave a relative viability of 0.418.
Cell Line ABC-1 has a relative viability of 0.707.
With NCI-H358 the relative viability was 0.267.
NCI-H650 showed a relative viability of 0.452.
Cell Line PC-3 [JPC-3] has a relative viability of 0.361.
